Source: publication PMC10046369, “Low-Affinity/High-Selectivity Dopamine Transport Inhibition Sufficient to Rescue Cognitive Functions in the Aging Rat” (Biomolecules, 2023)

Columns and labels:
Assay in all cases: biochemical
Design in all cases: KINOMEscan competition binding panel, per cent of control
Conditions in all cases: read-out: %Ctrl @ 2800nM
[1] = molecular target: ACVR2A (Homo sapiens, UniProt P27037)
Summary of the method: (§1)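 Values are expressed as percent of control, calculated as ((test − positive control)/(negative control − positive control)) × 100, so lower numbers mean stronger hits. Binding was measured by KINOMEscan competition assay in a 450-kinase human panel including disease mutants, using the contractor's validated protocol.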

[2] = molecular target: ALK (Homo sapiens, UniProt Q9UM73)
Summary of the method: as §1

[3] = molecular target: ANKK1 (Homo sapiens, UniProt Q8NFD2)
Summary of the method: as §1

[4] = molecular target: BRAF(V600E) (Homo sapiens, UniProt P15056, V600E)
Summary of the method: as §1

[5] = molecular target: CDK2 (Homo sapiens, UniProt P24941)
Summary of the method: as §1

[6] = molecular target: CSNK1E (Homo sapiens, UniProt P49674)
Summary of the method: as §1

[7] = molecular target: CSNK2A2 (Homo sapiens, UniProt P19784)
Summary of the method: as §1

[8] = molecular target: DAPK2 (Homo sapiens, UniProt Q9UIK4)
Summary of the method: as §1

[9] = molecular target: T1, DLK (Homo sapiens, UniProt Q12852)
T1 construct: gene MAP3K12
Summary of the method: as §1

[10] = molecular target: T2, DMPK2 (Homo sapiens, UniProt Q6DT37)
T2 construct: gene CDC42BPG
Summary of the method: as §1

[11] = molecular target: EGFR(S752-I759del) (Homo sapiens, UniProt P00533, DEL752-759)
Summary of the method: as §1

[12] = molecular target: EPHA2 (Homo sapiens, UniProt P29317)
Summary of the method: as §1

[13] = molecular target: EPHB4 (Homo sapiens, UniProt P54760)
Summary of the method: as §1

[14] = molecular target: FGFR3 (Homo sapiens, UniProt P22607)
Summary of the method: as §1

[15] = molecular target: FGFR3(G697C) (Homo sapiens, UniProt P22607, G697C)
Summary of the method: as §1

[16] = molecular target: FLT3(ITD,F691L) (Homo sapiens, UniProt P36888, F691L/ITD)
Summary of the method: as §1

[17] = molecular target: GRK4 (Homo sapiens, UniProt P32298)
Summary of the method: as §1

[18] = molecular target: T3, JAK1(JH1domain-catalytic) (Homo sapiens, UniProt P23458)
T3 construct: JH1domain-catalytic
Summary of the method: as §1

[19] = molecular target: KIT (Homo sapiens, UniProt P10721)
Summary of the method: as §1

[20] = molecular target: MARK4 (Homo sapiens, UniProt Q96L34)
Summary of the method: as §1

[21] = molecular target: MELK (Homo sapiens, UniProt Q14680)
Summary of the method: as §1

[22] = molecular target: NEK2 (Homo sapiens, UniProt P51955)
Summary of the method: as §1

[23] = molecular target: PIK3CA(H1047Y) (Homo sapiens, UniProt P42336, H1047Y)
Summary of the method: as §1

[24] = molecular target: PIM3 (Homo sapiens, UniProt Q86V86)
Summary of the method: as §1

[25] = molecular target: TBK1 (Homo sapiens, UniProt Q9UHD2)
Summary of the method: as §1

[26] = molecular target: TNNI3K (Homo sapiens, UniProt Q59H18)
Summary of the method: as §1

KIT, sequence (P10721 whole entry): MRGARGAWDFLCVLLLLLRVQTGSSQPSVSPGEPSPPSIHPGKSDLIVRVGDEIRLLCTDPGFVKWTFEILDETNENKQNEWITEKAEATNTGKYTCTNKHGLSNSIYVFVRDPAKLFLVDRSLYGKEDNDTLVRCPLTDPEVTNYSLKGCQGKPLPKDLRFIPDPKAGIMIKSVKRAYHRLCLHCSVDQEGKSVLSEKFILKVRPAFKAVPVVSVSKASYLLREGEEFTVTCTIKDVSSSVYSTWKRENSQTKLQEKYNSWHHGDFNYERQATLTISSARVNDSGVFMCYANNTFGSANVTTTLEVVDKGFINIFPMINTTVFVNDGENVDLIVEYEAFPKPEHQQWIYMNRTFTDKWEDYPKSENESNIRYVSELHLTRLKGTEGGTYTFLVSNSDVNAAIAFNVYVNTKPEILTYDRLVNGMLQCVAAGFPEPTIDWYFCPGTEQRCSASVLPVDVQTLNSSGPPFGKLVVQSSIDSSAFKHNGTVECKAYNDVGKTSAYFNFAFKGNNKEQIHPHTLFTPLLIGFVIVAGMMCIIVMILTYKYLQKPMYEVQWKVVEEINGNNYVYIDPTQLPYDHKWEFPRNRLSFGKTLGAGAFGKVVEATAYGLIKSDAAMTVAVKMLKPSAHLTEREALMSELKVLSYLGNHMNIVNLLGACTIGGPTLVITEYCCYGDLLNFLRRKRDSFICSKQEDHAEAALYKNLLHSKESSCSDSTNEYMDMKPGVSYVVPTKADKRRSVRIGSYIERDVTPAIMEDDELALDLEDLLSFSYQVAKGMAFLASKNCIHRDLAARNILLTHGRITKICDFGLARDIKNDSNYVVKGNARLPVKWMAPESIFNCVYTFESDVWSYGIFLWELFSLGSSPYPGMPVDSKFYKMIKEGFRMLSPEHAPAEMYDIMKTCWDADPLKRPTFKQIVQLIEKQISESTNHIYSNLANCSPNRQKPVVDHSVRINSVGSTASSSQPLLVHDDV
ANKK1, sequence (Q8NFD2 whole entry): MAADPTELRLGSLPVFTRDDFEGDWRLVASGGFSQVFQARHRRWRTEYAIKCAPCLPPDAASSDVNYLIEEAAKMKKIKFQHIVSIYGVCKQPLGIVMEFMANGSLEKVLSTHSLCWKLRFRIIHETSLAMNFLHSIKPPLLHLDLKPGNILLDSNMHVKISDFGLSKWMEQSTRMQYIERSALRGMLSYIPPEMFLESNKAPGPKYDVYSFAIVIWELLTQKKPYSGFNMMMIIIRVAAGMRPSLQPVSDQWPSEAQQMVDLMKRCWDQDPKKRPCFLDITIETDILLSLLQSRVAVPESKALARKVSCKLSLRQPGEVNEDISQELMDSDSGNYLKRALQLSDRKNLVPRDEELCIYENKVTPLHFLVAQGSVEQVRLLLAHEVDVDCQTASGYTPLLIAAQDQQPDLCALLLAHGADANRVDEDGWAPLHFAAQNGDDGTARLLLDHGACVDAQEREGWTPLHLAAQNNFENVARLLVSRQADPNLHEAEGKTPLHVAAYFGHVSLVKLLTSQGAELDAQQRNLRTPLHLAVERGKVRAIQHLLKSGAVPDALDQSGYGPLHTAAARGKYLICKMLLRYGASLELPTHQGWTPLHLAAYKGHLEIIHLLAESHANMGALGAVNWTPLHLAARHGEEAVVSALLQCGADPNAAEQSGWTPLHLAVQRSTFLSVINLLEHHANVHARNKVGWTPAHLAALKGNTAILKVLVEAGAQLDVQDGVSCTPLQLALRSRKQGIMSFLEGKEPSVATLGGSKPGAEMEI
T2 sequence (Q6DT37 whole entry): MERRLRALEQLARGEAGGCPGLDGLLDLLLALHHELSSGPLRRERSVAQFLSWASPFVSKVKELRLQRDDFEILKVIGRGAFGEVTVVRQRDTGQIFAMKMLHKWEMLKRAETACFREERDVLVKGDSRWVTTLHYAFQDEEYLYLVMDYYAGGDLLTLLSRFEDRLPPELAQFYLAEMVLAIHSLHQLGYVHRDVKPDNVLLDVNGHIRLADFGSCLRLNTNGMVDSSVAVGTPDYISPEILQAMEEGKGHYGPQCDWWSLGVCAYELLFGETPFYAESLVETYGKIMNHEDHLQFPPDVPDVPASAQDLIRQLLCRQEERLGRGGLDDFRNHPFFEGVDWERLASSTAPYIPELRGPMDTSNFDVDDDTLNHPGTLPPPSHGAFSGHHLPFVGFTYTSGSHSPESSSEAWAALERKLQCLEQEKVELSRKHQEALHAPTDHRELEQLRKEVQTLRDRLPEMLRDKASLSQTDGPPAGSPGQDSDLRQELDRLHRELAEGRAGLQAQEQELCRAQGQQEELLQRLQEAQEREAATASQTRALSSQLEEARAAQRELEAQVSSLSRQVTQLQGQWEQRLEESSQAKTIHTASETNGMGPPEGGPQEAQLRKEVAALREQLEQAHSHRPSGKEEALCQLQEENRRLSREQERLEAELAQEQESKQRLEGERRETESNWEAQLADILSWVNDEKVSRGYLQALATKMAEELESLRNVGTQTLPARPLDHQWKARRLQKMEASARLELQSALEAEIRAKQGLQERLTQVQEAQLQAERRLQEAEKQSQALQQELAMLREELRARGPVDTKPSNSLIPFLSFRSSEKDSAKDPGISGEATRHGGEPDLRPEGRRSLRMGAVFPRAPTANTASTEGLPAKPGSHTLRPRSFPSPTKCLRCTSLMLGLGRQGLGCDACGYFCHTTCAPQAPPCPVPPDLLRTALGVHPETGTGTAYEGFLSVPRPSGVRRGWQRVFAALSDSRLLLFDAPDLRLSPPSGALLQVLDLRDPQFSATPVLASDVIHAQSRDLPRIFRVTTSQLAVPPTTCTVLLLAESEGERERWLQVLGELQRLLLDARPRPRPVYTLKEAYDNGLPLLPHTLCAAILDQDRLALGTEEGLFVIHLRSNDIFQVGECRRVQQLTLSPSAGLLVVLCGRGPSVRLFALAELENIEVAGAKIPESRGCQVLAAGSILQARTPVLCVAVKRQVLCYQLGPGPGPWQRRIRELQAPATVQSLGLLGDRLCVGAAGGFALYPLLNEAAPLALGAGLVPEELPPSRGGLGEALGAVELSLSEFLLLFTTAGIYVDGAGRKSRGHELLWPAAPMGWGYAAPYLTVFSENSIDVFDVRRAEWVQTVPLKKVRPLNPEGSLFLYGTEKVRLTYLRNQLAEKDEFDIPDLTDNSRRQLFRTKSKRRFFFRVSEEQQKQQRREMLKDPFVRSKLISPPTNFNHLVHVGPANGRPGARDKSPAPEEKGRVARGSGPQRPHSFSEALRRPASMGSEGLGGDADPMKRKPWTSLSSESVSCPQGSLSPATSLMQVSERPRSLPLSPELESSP
FLT3(ITD,F691L), sequence (P36888 564-993 F691L): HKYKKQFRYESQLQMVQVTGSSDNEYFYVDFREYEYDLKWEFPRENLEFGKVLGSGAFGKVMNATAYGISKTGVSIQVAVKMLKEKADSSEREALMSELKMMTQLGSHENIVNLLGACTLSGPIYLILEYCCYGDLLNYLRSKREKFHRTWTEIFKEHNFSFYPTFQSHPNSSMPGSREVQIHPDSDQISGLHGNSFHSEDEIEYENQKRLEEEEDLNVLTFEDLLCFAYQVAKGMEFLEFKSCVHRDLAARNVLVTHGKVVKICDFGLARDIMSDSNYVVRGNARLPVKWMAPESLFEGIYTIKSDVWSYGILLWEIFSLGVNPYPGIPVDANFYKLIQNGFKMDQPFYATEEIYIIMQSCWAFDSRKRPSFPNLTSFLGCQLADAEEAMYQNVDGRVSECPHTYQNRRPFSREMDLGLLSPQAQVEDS
BRAF(V600E), sequence (P15056 whole entry V600E): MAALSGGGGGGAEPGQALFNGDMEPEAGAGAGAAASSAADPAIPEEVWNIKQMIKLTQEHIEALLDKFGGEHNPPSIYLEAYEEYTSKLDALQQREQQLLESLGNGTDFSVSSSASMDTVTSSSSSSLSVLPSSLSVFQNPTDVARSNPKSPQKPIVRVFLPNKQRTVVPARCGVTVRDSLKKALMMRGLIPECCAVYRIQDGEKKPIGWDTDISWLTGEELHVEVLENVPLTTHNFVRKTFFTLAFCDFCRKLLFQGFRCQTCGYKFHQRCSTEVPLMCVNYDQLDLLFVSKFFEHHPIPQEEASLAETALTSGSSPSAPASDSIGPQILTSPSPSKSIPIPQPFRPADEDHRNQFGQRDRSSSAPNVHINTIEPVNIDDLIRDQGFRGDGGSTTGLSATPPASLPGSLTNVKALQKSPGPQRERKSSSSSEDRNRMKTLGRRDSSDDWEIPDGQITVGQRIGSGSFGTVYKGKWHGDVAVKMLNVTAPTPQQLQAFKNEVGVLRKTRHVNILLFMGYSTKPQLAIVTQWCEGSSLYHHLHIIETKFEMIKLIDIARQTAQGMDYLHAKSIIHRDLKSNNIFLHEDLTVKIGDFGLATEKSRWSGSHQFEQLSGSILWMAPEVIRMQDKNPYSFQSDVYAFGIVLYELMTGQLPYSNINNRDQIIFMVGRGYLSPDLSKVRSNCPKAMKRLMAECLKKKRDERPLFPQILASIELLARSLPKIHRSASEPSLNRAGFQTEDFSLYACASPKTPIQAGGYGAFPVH
CSNK1E, sequence (P49674 whole entry): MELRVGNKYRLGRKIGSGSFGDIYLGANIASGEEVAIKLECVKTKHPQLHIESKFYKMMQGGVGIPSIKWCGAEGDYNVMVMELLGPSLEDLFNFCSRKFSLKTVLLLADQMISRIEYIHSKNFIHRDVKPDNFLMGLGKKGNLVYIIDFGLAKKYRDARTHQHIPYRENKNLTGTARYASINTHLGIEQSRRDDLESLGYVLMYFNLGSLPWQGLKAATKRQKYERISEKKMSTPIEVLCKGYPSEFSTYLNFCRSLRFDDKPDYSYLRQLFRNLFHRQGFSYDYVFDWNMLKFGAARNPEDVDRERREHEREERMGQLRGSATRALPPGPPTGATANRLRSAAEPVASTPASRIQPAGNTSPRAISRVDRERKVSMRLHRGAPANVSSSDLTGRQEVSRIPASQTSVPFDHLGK

In the case of `[O-][S@@+](Cc1cncs1)C(c1ccccc1)c1ccccc1` [S-CE-123, (S)-5-((Benzhydrylsulfinyl)Methyl)Thiazole], the remaining binding at 2.8 µM [1] is reported as 100%, the remaining binding at 2.8 µM [2] is reported as 100% and the remaining binding at 2.8 µM [3] is reported as 100%. It also gave a remaining binding at 2.8 µM [4] of 100%, a remaining binding at 2.8 µM [5] of 94% and a remaining binding at 2.8 µM [6] of 96%. The remaining binding at 2.8 µM [7] was 100%, the remaining binding at 2.8 µM [8] was 96% and the remaining binding at 2.8 µM [9] was 100%. It also gave a remaining binding at 2.8 µM [10] of 88%, a remaining binding at 2.8 µM [11] of 66% and a remaining binding at 2.8 µM [12] of 73%. It also gave a remaining binding at 2.8 µM [13] of 95%, a remaining binding at 2.8 µM [14] of 91% and a remaining binding at 2.8 µM [15] of 96%. It also gave a remaining binding at 2.8 µM [16] of 50%, a remaining binding at 2.8 µM [17] of 73% and a remaining binding at 2.8 µM [18] of 93%. The remaining binding at 2.8 µM [19] was 97%, the remaining binding at 2.8 µM [20] was 98% and the remaining binding at 2.8 µM [21] was 67%. It also gave a remaining binding at 2.8 µM [22] of 96%, a remaining binding at 2.8 µM [23] of 100% and a remaining binding at 2.8 µM [24] of 100%. The remaining binding at 2.8 µM [25] was 100% and the remaining binding at 2.8 µM [26] was 100%.
